Data on four compounds can be found in patent US4721808A, “Process for purification of crude p-hydroxymethylbenzoic acid” (Amoco Corporation, priority 1987, dated 1988).

This series can be described thus: Solubilities of pHMBA and Impurities in Water. It is filed as physicochemical. How it is done:
Since solubilities of p-hydroxymethylbenzoic acid and impurities in solvents depend upon the temperature at which the reaction takes place, increased product production is obtained by increased temperature and pressure.
Solubilities of pHMBA and Impurities in Water
Solubility (g/100 ml H2 O)

On to `Cc1ccc(C(=O)O)cc1` [p-Toluic Acid, p-toluic acid], for which the “Solubility at 20° C.” value was determined as 0.02 g/100 ml H2 O and the “Solubility at 100° C.” value was 0.22 g/100 ml H2 O.
For `O=Cc1ccc(C(=O)O)cc1` [4-CBA, 4-carboxybenzaldehyde], in that order: less than 0.005 g/100 ml H2 O and ~ 0.25 g/100 ml H2 O.
Take `O=C(O)c1ccc(C(=O)O)cc1` [Terephthalic Acid, terephthalic acid]: the “Solubility at 20° C.” value is on record as less than 0.005 g/100 ml H2 O and the “Solubility at 100° C.” value is on record as 0.03 g/100 ml H2 O.
Taken in the same sequence, the figures for `O=C(O)c1ccc(CO)cc1` [pHMBA, p-hydroxymethylbenzoic acid] were ~ 0.5 g/100 ml H2 O and ~ 10.0 g/100 ml H2 O.
